40 substances from US11607446B2, “Personalized immunotherapy against several neuronal and brain tumors” (Immatics Biotechnologies GmbH, priority 2013, dated 2023) can be followed below.

The experiment concerns CD8+ T cells. The experiment can be described thus: In vitro immunogenicity of HLA-A*02 class I peptides: in vitro T-cell priming with aAPCs loaded with peptide/MHC complexes and anti-CD28 antibody, pMHC multimer readout. The note with it: HLA-A*02 peptides; for Donors / Donors (percentage in brackets): healthy donors; for Donors: specific multimer+ CD8+ T-cell line after in vitro stimulation; for Wells: in vitro stimulated wells of healthy donors' CD8+ T cells, specific multimer+ readout. The experiment is classed as cell-based, human.

Where no end group is shown, it is not given here.

“KLTDIQIEL (listed as Homo sapiens) [JAK-001]”: the Donors result is given as “++ (20%-49 % = ++)” and the Wells result is on record as “+ (<20% = +)”.
On to “KLADQYPHL (listed as Homo sapiens) [SOX-001]”, for which the Donors result is given as “++++ (>70% = ++++)” and the Wells result was “+ (<20% = +)”.
As for “NLDTLMTYV (listed as Homo sapiens) [NLGN4X-001]”, the “Donors (percentage in brackets)” value is given as 100%, the Donors result was “++++ (>70% = ++++)” and the Wells result is “++ (20%-49 % = ++)”.
On to “RVAS*PTSGV (RVASPTSGV; not fully specified (residue 4); printed as RVAS*PTSGV; listed as Homo sapiens) [IRS-001]”, for which the Donors result is on record as “+++ (50%-70% = +++)” and the Wells result is reported as “+ (<20% = +)”.
The like results for “FLDSKFYLL (listed as Homo sapiens) [MAP1B-001]” were, in that order, “+++ (50%-70% = +++)” and “+ (<20% = +)”.
Taken in the same sequence, the figures for “VLIQDVPTL (listed as Homo sapiens) [GRI-002]” were “++ (20%-49 % = ++)” and “+ (<20% = +)”.
The like results for “MLFGHPLLVSV (listed as Homo sapiens) [USP11-001]” were, in that order, “++++ (>70% = ++++)” and “++ (20%-49 % = ++)”.
Take “ALTTLMHQL (listed as Homo sapiens) [PTP-001]”: the Donors entry was “++ (20%-49 % = ++)” and the Wells result is listed as “+ (<20% = +)”.
For the substance “GLWHHQTEV (listed as Homo sapiens) [NRC AM-001]”, the “Donors (percentage in brackets)” value is 100%, the Donors result is “++++ (>70% = ++++)” and the Wells result is recorded as “+ (<20% = +)”.
As to “LTAPPEALLMV (listed as Homo sapiens) [NOC4-001]”, the Donors entry was “+++ (50%-70% = +++)” and the Wells entry is given as “+ (<20% = +)”.
On to “AVAPGPWKV (listed as Homo sapiens) [MAGI2-001]”, for which the Donors entry was “++ (20%-49 % = ++)” and the Wells result is “+ (<20% = +)”.
The like results for “GMMTAILGV (listed as Homo sapiens) [SLC35E1-002]” were, in that order, “++ (20%-49 % = ++)” and “+ (<20% = +)”.
Consider “SLAERLFFQV (listed as Homo sapiens) [NAT8L-001]”, for which the Donors entry is given as “++++ (>70% = ++++)” and the Wells entry was “+ (<20% = +)”.
The like results for “KLFDSDPITVTV (listed as Homo sapiens) [CLU-001]” were, in that order, “++ (20%-49 % = ++)” and “+ (<20% = +)”.
In the case of “KVFAGIPTV (listed as Homo sapiens) [PTP-005]”, the Donors result was “++++ (>70% = ++++)” and the Wells result is recorded as “++ (20%-49 % = ++)”.
With “NLLAEIHGV (listed as Homo sapiens) [DPYSL4-001]”, the Donors entry is “++ (20%-49 % = ++)” and the Wells result was “+ (<20% = +)”.
“SLWGGDVVL (listed as Homo sapiens) [VPS13B-001]”: the “Donors (percentage in brackets)” value worked out at 100%, the Donors entry is listed as “++++ (>70% = ++++)” and the Wells entry is “++ (20%-49 % = ++)”.
As for “LLYDAVHIV (listed as Homo sapiens) [GRIK3-001]”, the Donors result was “++++ (>70% = ++++)” and the Wells result is on record as “+ (<20% = +)”.
Taken in the same sequence, the figures for “TLTNIIHNL (listed as Homo sapiens) [ORMDL1-002]” were “+++ (50%-70% = +++)” and “+ (<20% = +)”.
Taken in the same sequence, the figures for “GVLENIFGV (listed as Homo sapiens) [PCNXL3-001]” were “++ (20%-49 % = ++)” and “+ (<20% = +)”.
For “ALFNKGGSVFL (listed as Homo sapiens) [GPR98-001]”, the Donors entry is listed as “++ (20%-49 % = ++)” and the Wells result is listed as “+ (<20% = +)”.
The like results for “TMMSRPPVL (listed as Homo sapiens) [WLS-002]” were, in that order, “+++ (50%-70% = +++)” and “+ (<20% = +)”.
Taken in the same sequence, the figures for “AIIDGVESV (listed as Homo sapiens) [PTP-003]” were “++++ (>70% = ++++)” and “+ (<20% = +)”.
The like results for “ALADIAVGV (listed as Homo sapiens) [ADORA3-001]” were, in that order, “++ (20%-49 % = ++)” and “+ (<20% = +)”.
Turning to “FLLPDTDGLTAL (listed as Homo sapiens) [PTP-012]”, the Donors entry is “++ (20%-49 % = ++)” and the Wells result was “+ (<20% = +)”.
For the substance “NILEQIVSV (listed as Homo sapiens) [GRI-001]”, the Donors entry is on record as “++ (20%-49 % = ++)” and the Wells entry is recorded as “+ (<20% = +)”.
As for “SLADFMQEV (listed as Homo sapiens) [CNOT1-002]”, the Donors entry is given as “++ (20%-49 % = ++)” and the Wells entry is listed as “+ (<20% = +)”.
Turning to “TLLAAEFLKQV (listed as Homo sapiens) [CCT-001]”, the Donors result is reported as “+++ (50%-70% = +++)” and the Wells entry is recorded as “+ (<20% = +)”.
On to “EILDYIYEV (listed as Homo sapiens) [ASIC4-001]”, for which the Donors entry was “++ (20%-49 % = ++)” and the Wells entry is “+ (<20% = +)”.
Consider “KLCEGFNEV (listed as Homo sapiens) [CHCHD2-005]”, for which the Donors entry is “+++ (50%-70% = +++)” and the Wells entry is recorded as “+ (<20% = +)”.
Taken in the same sequence, the figures for MIWEHNVEV [PTP-013] were “++++ (>70% = ++++)” and “+ (<20% = +)”.
Take “ILFEINPKL (listed as Homo sapiens) [ABCA13-001]”: the Donors result is “++ (20%-49 % = ++)” and the Wells entry is recorded as “+ (<20% = +)”.
As for “SLYKGLLSV (listed as Homo sapiens) [RAD54B-001]”, the “Donors (percentage in brackets)” value is recorded as 100%, the Donors result is “++++ (>70% = ++++)” and the Wells entry is on record as “++ (20%-49 % = ++)”.
In the case of “LLQDRLVSV (listed as Homo sapiens) [PLEKHA4-001]”, the Donors result is reported as “+++ (50%-70% = +++)” and the Wells result is listed as “+ (<20% = +)”.
As for “LLYTGDLEAL (listed as Homo sapiens) [NPAS3-001]”, the Donors entry is recorded as “++ (20%-49 % = ++)” and the Wells result was “+ (<20% = +)”.
Take “ALGDIREV (listed as Homo sapiens) [ANKRD40-001]”: the Donors entry is “+++ (50%-70% = +++)” and the Wells result is on record as “+ (<20% = +)”.
Taken in the same sequence, the figures for “KVFDEVIEV (listed as Homo sapiens) [GYG2-001]” were “++ (20%-49 % = ++)” and “+ (<20% = +)”.
“RLGIKPESV (listed as Homo sapiens) [CSRP2-001]”: the “Donors (percentage in brackets)” value turned out to be 100%, the Donors result is “++++ (>70% = ++++)” and the Wells entry is reported as “++ (20%-49 % = ++)”.
Turning to “GLLDQIQAL (listed as Homo sapiens) [NLGN4X-002]”, the Donors result was “++ (20%-49 % = ++)” and the Wells result is “+ (<20% = +)”.
For the substance “SLGLFLAQV (listed as Homo sapiens) [SCARA3-001]”, the Donors entry is “++ (20%-49 % = ++)” and the Wells result is listed as “+ (<20% = +)”.
